Test results as given in US8323695B2, “Method for stabilizing phenylephrine” (McNeil-PPC, Inc., priority 2007, dated 2012).
Counter-ions that a name gives are not always drawn.

Experiments:
[1] = Stability of phenylephrine in solid formulations after spray drying an acidic solution; type: physicochemical
From the text: Phenylephrine is known to experience physical and chemical degradation. Degradation of phenylephrine may be caused by a variety of factors including, but not limited to, the presence of oxygen, moisture, reducible sugars, bases, high temperatures, etc. […] Degradation of phenylephrine may be noticed by a change in color, e.g. changing from a whitish color to a darker, blackish color. Additionally, phenylephrine may degrade chemically as recorded by degradation peaks during analysis, such as an HPLC analysis. It is desirable to prevent, reduce or minimize the degradation of phenylephrine. An embodiment of the present invention provides a stable pharmaceutical composition having phenylephrine in a therapeutically effective amount wherein the phenylephrine has been spray dried. An additional embodiment of the present invention provides a stable composition of phenylephrine in a therapeutically effective amount wherein the phenylephrine has been layered or sprayed onto a substrate.

[2] = Formation of phenylephrine-maleate adducts as a function of pH; type: physicochemical; settings: combined with chlorpheniramine maleate
From the text: Phenylephrine may be unstable in the presence of active ingredients which are the soluble salts of maleic acid. Phenylephrine-Maleate adducts form when phenylephrine hydrochloride is combined with chlorpheniramine maleate in solution and in solid dosage forms. This is due to the presence of phenylephrine with maleic acid. It was discovered that a pH below 6.0 yields low levels of one type of phenylephrine-maleate adduct (degradant #1) and it was also discovered that a pH above 4.5 yields low levels of a second type of phenylephrine-maleate adduct (degradant #2).

stability of phenylephrine in solid formulations [1]	levels of second type of phenylephrine-maleate adduct (degradant #2) ([2]; pH above 4.5)	levels of phenylephrine-maleate adduct (degradant #1) ([2]; pH below 6.0)	SMILES
increases the stability			CNC[C@H](O)c1cccc(O)c1 [phenylephrine]
	low levels	low levels	CNC[C@H](O)c1cccc(O)c1 [phenylephrine hydrochloride]
